In US8541400B2, “Compositions forming non-lamellar dispersions” (Camurus AB, priority 2004, dated 2013):

Legend:
[1] = Oral bioavailability of octreotide in rats (plasma OCT, competitive immunoassay); format: in vivo; conditions: rat, 0.2 mg/kg, read-out: Absolute bioavailability (F)
Description: On the first day of the experiment, the rats were prepared by inserting a silicon catheter (OD approx. 1 mm) in the jugular vein under isoflurane anaesthesia. The catheter was tunnelled under the skin and exteriorised between the scapulae. After surgery the rats were allowed 48 hours of recovery before dosing. The catheter was rinsed with 0.9% NaCl containing 1 mM EDTA, every morning during the recovery period.
In the morning, after approximately 16 hours of fasting (water was accessible), the animals were dosed and blood collected. The animals were allowed free access to water after dosing, but had no access to food. After the last sampling, all animals were sacrificed.
The rats were dosed intravenously through the venous catheter or by gavage by a plastic ball-tipped gavage tube. […]
The content of OCT in all plasma samples was measured by a competitive immunoassay. […] The fraction of antibody remaining in solution is removed, and the fraction bound to the immobilized peptide is quantified, the signal obtained being inversely proportional to the concentration of OCT in the sample. […]
Dose-corrected absolute bioavailability of OCT in the oral non-lamellar formulation was calculated as: Availability (F)=(AUCoral×DoseIV)/(AUCIV×Doseoral)×100 20.6—Results

[2] = Active agent loading into non-lamellar particle dispersion; format: physicochemical; conditions: active agent relative to mass of total amphiphile, DGMO/GDO/Pluronic F127 54/36/10 dispersion; for % loading by equilibration: 37° C., three days; for % loading by heat treatment: autoclavation 125° C., 20 minutes
Description: A composition comprising DGMO (54% by weight), GDO (36% by weight) and Pluronic® F127 (10% by weight) was dispersed in 99 times its weight in water by the method of Example 2.1.
The dispersion was divided into samples and loaded with each of the active agents shown below by each of two techniques: • i) A saturated solution of active was equilibrated with the particles in dispersion at 37° C. for three days by gentle stirring on a rotating table. • ii) The samples were dispersed in a solution of excess active agent and heat treated by autoclavation at 125° C. for 20 minutes and were allowed to temperature equilibrate at 37° C. for at least one hour.
The following loadings were achieved, expressed as percentage active agent incorporated relative to the mass of total amphiphile.

% loading by equilibration [2] [%]	% loading by heat treatment [2] [%]	SMILES	bioavailability [1] [%]
		C[C@@H](O)[C@@H]1NC(=O)[C@H](CCCCN)NC(=O)[C@@H](Cc2c[nH]c3ccccc23)NC(=O)[C@H](Cc2ccccc2)NC(=O)[C@@H](NC(=O)[C@H](N)Cc2ccccc2)CSSC[C@@H](C(=O)N[C@H](CO)[C@@H](C)O)NC1=O [OCT in a saline solution, Octreotide]	~0.04
0.6	3.76	C[C@]12CC[C@@H]3c4ccc(O)cc4C[C@@H](CCCCCCCCC[S+]([O-])CCCC(F)(F)C(F)(F)F)[C@H]3[C@@H]1CC[C@@H]2O (stereo partly shown) [Fulvestrant]	
3.49	19.25	CC(=O)N1CCN(c2ccc(OCC3COC(Cn4ccnc4)(c4ccc(Cl)cc4Cl)O3)cc2)CC1 (stereo not shown) [Ketoconazole]	
2.99	12.65	CC(=O)[C@H]1CC[C@H]2[C@@H]3CCC4=CC(=O)CC[C@]4(C)[C@H]3CC[C@]12C [Progesterone]	
